Assay results taken from PubChem BioAssay AID248 (DTP/NCI, 2004).
Toxic doses and inconclusive results are not listed. No stated cut-off is given here; in the data, active means T/C of 150% or more; inactive means T/C below 125%.

System: L1210 leukemia ip in BDF1 mice, survival T/C
Assay: NCI In Vivo Anticancer Drug Screen. Data for tumor model L1210 Leukemia (intraperitoneal) in B6D2F1 (BDF1) mice
Details: endpoint: mean survival time, higher = longer survival
Outline: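 Tumor was transplanted into mice, which were then dosed with test compound or vehicle alone. Survival was recorded for each group, and the treated figure was expressed relative to the control figure.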

[1] = dose: 100.0 mg/kg/injection, schedule: Q04DX003 (ip), vehicle: saline with Tween-80
[2] = dose: 200.0 mg/kg/injection, schedule: Q04DX003 (ip), vehicle: saline with Tween-80
[3] = dose: 400.0 mg/kg/injection, schedule: Q04DX003 (ip), vehicle: saline with Tween-80

Measured: T/C

C=C(Br)CNC(=O)Nc1cccc2c1CCCC2
inactive: dose: 100.0 mg/kg/injection, schedule: Q01DX009 (ip), vehicle: saline with Tween-80 94 % of control | [1] 86 % of control | dose: 200.0 mg/kg/injection, schedule: Q01DX009 (ip), vehicle: saline with Tween-80 97 % of control | [2] 86 % of control | dose: 400.0 mg/kg/injection, schedule: Q01DX009 (ip), vehicle: saline with Tween-80 92 % of control | [3] 88 % of control

C1C[S][Sn]2([S]CCO1)[S]CCOCC[S]2
inactive: dose: 12.5 mg/kg/injection, schedule: Q01DX001 (ip), vehicle: saline with Tween-80 94 % of control | dose: 25.0 mg/kg/injection, schedule: Q01DX001 (ip), vehicle: saline with Tween-80 106 % of control | dose: 50.0 mg/kg/injection, schedule: Q01DX001 (ip), vehicle: saline with Tween-80 87 % of control

O=C1c2ccccc2C(=O)N1C/C=C/Cl
inactive: [1] 104 % of control | [2] 108 % of control | [3] 101 % of control

C[C@]12CC[C@@H](O)C[C@H]1CC[C@@H]1[C@@H]2CC[C@]2(C)C(=O)CC[C@@H]12
inactive: dose: 100.0 mg/kg/injection, schedule: Q01DX001 (sc), vehicle: steriod suspending solution 101 % of control | dose: 100.0 mg/kg/injection, schedule: Q04DX002 (ip), vehicle: saline with Tween-80 100 % of control | dose: 200.0 mg/kg/injection, schedule: Q01DX001 (sc), vehicle: steriod suspending solution 95 % of control | dose: 200.0 mg/kg/injection, schedule: Q04DX002 (ip), vehicle: saline with Tween-80 96 % of control | dose: 400.0 mg/kg/injection, schedule: Q01DX001 (sc), vehicle: steriod suspending solution 95 % of control | dose: 400.0 mg/kg/injection, schedule: Q04DX002 (ip), vehicle: saline with Tween-80 100 % of control
